Assay results reported in patent publication US20100152188A1, “Novel Heterocyclic Compounds” (priority 2005, published 2010).
pIC50: −log10 of the molar value.

Legend:
NCIH460 = experiment: Anti-cancer screen (MTT), NCIH460; type: cell-based; settings: Homo sapiens, NCI-H460, 48 hours with compound, tested at 0.01-100 µM
Procedure, shortened: (§1)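 Five-point dosing (0.01, 0.1, 1, 10, 100 µM) for 48 h, with triplicate wells and a separate zero-time plate. Viability is read by MTT at 570 nm and expressed as percent growth, from which GI50, TGI and LC50 are taken.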

MDAMB-231/U 251 = experiment: Anti-cancer screen (MTT), MDAMB-231/U 251; type: cell-based; settings: for CC50: 48 h, read-out: MDAMB-231/U 251 LC50; for GI50 / IC (TGI): 48 hours with compound, MTT, tested at 0.01-100 µM
Procedure, shortened: as §1

HDAC = HDAC inhibition; type: biochemical; settings: for HDAC Inhibition 1 μM: compound at 1 μM; for HDAC Inhibition 10 μM: compound at 10 μM
[1] = tested on: NCIH460, HCT116, MDAMB-231/U 251; experiment: Anti-cancer screen, mean GI50 over the cell lines; type: cell-based; settings: in µM
Procedure, shortened: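 Growth was scored by MTT absorbance at 570 nm relative to control wells and a pre-treatment T0 reading. Compounds were tested at five final concentrations (0.01–100 µM, triplicate) for 48 h on NCIH460, HCT116 and U251 cells, each plated at 5000 cells/well 24 h before dosing.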

HCT116 = experiment: Anti-cancer screen (MTT), HCT116; type: cell-based; settings: Homo sapiens, HCT-116, 48 hours with compound, tested at 0.01-100 µM
Procedure, shortened: as §1

Compound	GI50 (NCIH460) [µM]	IC (TGI) (NCIH460) [µM]	LC50 (NCIH460) [µM]	CC50 (MDAMB-231/U 251) [µM]	GI50 (MDAMB-231/U 251) [µM]	IC (TGI) (MDAMB-231/U 251) [µM]	HDAC Inhibition 1 μM (HDAC)	Mean GI50 [1]	GI50 (HCT116) [µM]	IC (TGI) (HCT116) [µM]	LC50 (concentration giving 50% net cell kill relative to T0) (HCT116) [µM]	HDAC Inhibition 10 μM (HDAC)	pIC50 (HDAC)
O=C(NCc1ccc(C(=O)N2CCC(N3CCCCC3)CC2)cc1)OCC1COc2ccccc2O1 (stereo not shown) [Example 60, 2,3-Dihydro-1,4-benzodioxin-2-ylmethyl[{4-(piperidinopiperidin-1-yl)carbonyl}benzyl]carbamate]	7	83	> 100	> 100	> 100	> 100	1.4	36	65	> 100	> 100	–	–
CN(O)C(=O)c1ccc(CNC(=O)OCc2c(F)cc(F)cc2F)cc1 [Example 45, 2,4,6-Trifluorobenzyl(4-{[hydroxy(methyl)amino]carbonyl}benzyl)carbamate]	90	> 100	> 100	> 100	2.5	65	4.28	>100	> 100	> 100	> 100	−0.76	–
O=C(NCc1ccc(C(=O)NO)cc1)OCc1ccsc1 [Example 27, 3-Thienylmethyl{4-[(hydroxyamino)carbonyl]benzyl}carbamate]	34	64	100	> 100	> 100	> 100	67.65	24.9	7	21	72	81.85	6.24
O=C(CCCCCNC(=O)c1ccc(CNC(=O)OCc2cccs2)cc1)NO [Example 102, 2-Thienylmethyl[4-({[6-(hydroxyamino)-6-oxohexyl]amino}carbonyl)benzyl]carbamate]	5	9.5	100	60	4.8	9.5	79.08	4.9	4.8	10	> 100	85.52	6.60
N/C(=N/O)c1ccc(NC(=O)OCc2cccs2)cc1 [Example 110, 2-thienylmethyl{4-[(E)-amino(hydroxyimino)-methyl]-phenyl}-carbamate]	> 100	> 100	> 100	> 100	10	> 100	17.50	>100	80	> 100	> 100	52.34	–
Nc1ccccc1NC(=O)Cc1csc(NC(=O)OCc2nccs2)n1 [Example 23, 1,3-Thiazol-2-ylmethyl(4-{2-[(2-aminophenyl)amino]-2-oxoethyl}-1,3-thiazol-2-yl)carbamate]	> 100	> 100	> 100	> 100	31	> 100	11.34	>100	> 100	> 100	> 100	5.18	–
CNC(=O)c1ccc(CNC(=O)OCc2cccs2)cc1 [Example 40, 2-Thienylmethyl{4-[(methylamino)carbonyl]benzyl}carbamate]	> 100	> 100	> 100	> 100	14	> 100	−1.9	>100	100	> 100	> 100	8.6	–
O=C(NCc1ccc(C(=O)NO)cc1)OCc1nccs1 [Example 31, 1,3-Thiazol-2-ylmethyl{4-[(hydroxyamino)carbonyl]benzyl}carbamate]	0.02	0.9	92	> 100	32	> 100	82.6	10.7	0.02	0.97	39	87.4	6.89
O=C(NCc1ccc(C(=O)NO)cc1)OCc1nc2ccccc2s1 [Example 30, 1,3-Benzothiazol-2-ylmethyl{4-[(hydroxyamino)carbonyl]benzyl}carbamate]	0.02	0.05	73	> 100	0.78	> 100	84	0.3	0.23	7	61	84.6	6.85
O=C(Nc1nc(CC(=O)N2CCOCC2)cs1)OCc1cccnc1 [Example 10, pyridin-3-ylmethyl[4-(2-morpholin-4-yl-2-oxoethyl)-1,3-thiazol-2-yl]carbamate]	55	> 100	> 100	> 100	0.4	27	−9.85	26.7	> 100	> 100	> 100	0.14	–
O=C(Cc1csc(NC(=O)OCc2ccsc2)n1)NO [Example 3, 3-Thienylmethyl{4-[2-(hydroxyamino)-2-oxoethyl]-1,3-thiazol-2-yl}carbamate]	30	> 100	> 100	> 100	32	> 100	−4.03	31	> 100	> 100	> 100	22.89	–
O=C(NCc1ccc(C(=O)N2CCN(Cc3ccc4c(c3)OCO4)CC2)cc1)OCc1nccs1 [Example 57, 1,3-Thiazol-2-ylmethyl(4-{[4-(1,3-benzodioxol-5-ylmethyl)piperazin-1-yl]carbonyl}benzyl)carbamate]	0.4	0.9	> 100	> 100	0.4	0.9	−1.94	2.6	7	> 100	> 100	−1	–
O=C(CCCCNC(=O)Cc1csc(NC(=O)OCc2nc3ccccc3s2)n1)NO [Example 93, 1,3-Benzothiazol-2-ylmethyl[4-(2-{[5-(hydroxyamino)-5-oxopentyl]amino}-2-oxoethyl)-1,3-thiazol-2-yl]carbamate]	50	> 100	> 100	> 100	7	55	26.26	32.3	40	88	> 100	76.23	–
O=C(Cc1csc(NC(=O)OCc2ccncc2)n1)NO [Example 4, Pyridin-4-ylmethyl{4-[2-(hydroxyamino)-2-oxoethyl]-1,3-thiazol-2-4.yl}carbamate]	20	> 100	> 100	> 100	6	> 100	5.6	13	> 100	> 100	> 100	38.13	–
O=C(NCc1ccc(C(=O)NO)cc1)OCc1cccs1 [Example 28, 2-Thienylmethyl{4-[(hydroxyamino)carbonyl]benzyl}carbamate]	30	51	> 100	70	5	30	50.8	13	5	15	62	63.3	6.91
O=C(CCCCCNC(=O)Cc1csc(NC(=O)OCc2nccs2)n1)NO [Example 96, 1,3-Thiazol-2-ylmethyl[4-(2-{[6-(hydroxyamino)-6-oxohexyl]amino}-2-oxoethyl)-1,3-thiazol-2-yl]carbamate]	> 100	> 100	> 100	> 100	70	> 100	52.41	>100	> 100	> 100	> 100	86.63	–
